Assay results from the supplement of paper PMC10290057.
Structures can show the parent of a compound that is named as a salt.

Test system: HCT116
Experiment: efficacy (fitted maximal change in viability relative to DMSO control); higher = less cytotoxic (negative = loss of viability)
Settings: 48 h
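Note: Luminescence-based viability readout, five doses per compound, normalized against on-plate DMSO and empty-well controls, followed by dose-response curve fitting for every drug.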

| SMILES | efficacy [%] |
| --- | --- |
| CCN1C(=O)\C(=C/C2=CN=C(NCCC3CCN(C)CC3)N=C12)C4=CC=C(C=C4Cl)C5=CN=CC(=N5)C [FRAX-1036] | -62.9 |
| N#Cc1ccc(C2CCCc3cncn32)cc1 (centres undefined) [Fadrozole] | -10.8 |
| CC(=O)OCC(CCn1cnc2cnc(N)nc21)COC(C)=O [Famciclovir] | -14.2 |
| NC(=O)c1nc(F)cnc1O [Favipiravir] | -17.6 |
| Cc1nc(-c2ccc(OCC(C)C)c(C#N)c2)sc1C(=O)O [Febuxostat] | 3.94 |
| CN1CC(=O)\N=C1\NC(=O)NC2=CC(=CC=C2)Cl [Fenobam] | 5.7 |
| CC(C)OC(=O)C(C)(C)Oc1ccc(C(=O)c2ccc(Cl)cc2)cc1 [Fenofibrate] | -34.6 |
| Oc1ccc(C2CNCCc3c2cc(O)c(O)c3Cl)cc1 (centres undefined) [Fenoldopam] | -23.6 |
| CC(C)(C)NC(=O)[C@H]1CC[C@H]2[C@@H]3CC[C@H]4NC(=O)\C=C/[C@]4(C)[C@H]3CC[C@]12C [Finasteride] | -16.1 |
| OC1=CC2=C(C=C1)C(=O)\C(=C(O2)\C3=CC(=C(O)C=C3)O)O [Fisetin] | -56.3 |
| O=C(NCC1CCCCN1)c1cc(OCC(F)(F)F)ccc1OCC(F)(F)F (centres undefined) [Flecainide acetate] | -24.2 |
| NC/1=N/C(=O)N/C=C1F [Flucytosine] | -10.7 |
| CC1(C)O[C@@H]2C[C@H]3[C@@H]4C[C@H](F)C/5=C/C(=O)/C=C\[C@]5(C)[C@@]4(F)[C@@H](O)C[C@]3(C)[C@@]2(O1)C(=O)CO [Fluocinolone acetonide] | -10.6 |
| CC(=O)OCC(=O)[C@@]12OC(C)(C)O[C@@H]1C[C@H]3[C@@H]4C[C@H](F)C/5=C/C(=O)/C=C\[C@]5(C)[C@@]4(F)[C@@H](O)C[C@]23C [Fluocinonide] | -12.9 |
| CCOC(=O)Nc1ccc(NCc2ccc(F)cc2)nc1N [Flupirtine maleate] | 8.9 |
| CC(C(=O)O)c1ccc(-c2ccccc2)c(F)c1 (centres undefined) [Flurbiprofen] | -9.87 |
| CC(C)C(=O)Nc1ccc([N+](=O)[O-])c(C(F)(F)F)c1 [Flutamide] | -14.3 |
| CCC(=O)O[C@@]1([C@H](C)C[C@H]2[C@@H]3C[C@H](F)\C4=C\C(=O)\C=C/[C@]4(C)[C@@]3(F)[C@@H](O)C[C@]12C)C(=O)SCF [Fluticasone propionate] | -11.6 |
| Cc1cn[nH]c1 [Fomepizole] | -18.8 |
| C[C@]12CCC(=O)C(O)=C1CC[C@@H]1[C@@H]2CC[C@]2(C)C(=O)CC[C@@H]12 [Formestane] | 24.5 |
| CCOP(=O)(OCC)C(C)NC(=O)N(CCCl)N=O (centres undefined) [Fotemustine] | 7.5 |
| CNC(=O)c1c(C)oc2cc(Oc3ncnc4cc(OC)c(OC)cc34)ccc12 [Fruquintinib] | -11.4 |
| C[C@]12CC[C@@H]3c4ccc(O)cc4C[C@@H](CCCCCCCCC[S+]([O-])CCCC(F)(F)C(F)(F)F)[C@H]3[C@@H]1CC[C@@H]2O (some centres undefined) [Fulvestrant] | -14.2 |
| CN[C@@H](C)C(=O)N[C@H](C(=O)N1CCC[C@H]1C(=O)Nc1snnc1-c1ccccc1)C1CCCCC1 [GDC-0152] | -13.4 |
| C[C@]1(C(=O)N(CCCC(=O)O)Cc2cccc(Cl)c2)CCN1C(=O)c1csc2ccccc12 [GLPG-0974] | -21.2 |

| SMILES | efficacy [%] |
| --- | --- |
| CC(C)C[C@H](CC(=O)O)C(=O)N[C@@H](Cc1c[nH]c2ccccc12)C(=O)N[C@@H](C)c1ccccc1 [GM-1489] | 10.9 |
| Nc1ncc(C(=O)NC2CN(C(=O)C3CC3)C2)c2ccc(-c3cccc(F)c3)nc12 [GNE-495] | -23.5 |
| CC(=O)N1CCN(c2ccc(NC(=O)Cc3cnc(-c4ccnc(F)c4)c(C)c3)nc2)CC1 [GNF-6231] | -22.2 |
| C[C@H](NC(=O)Cc1cc(F)cc(F)c1)C(=O)N[C@H](C(=O)OC(C)(C)C)c1ccccc1 [GSI-IX] | 26 |
| CCN(C(=O)c1ccccc1OC)c1cc2c(cc1N1CCNC[C@H]1C)n(C)c(=O)n2C [GSK9311] | -8.64 |
| CC[C@H](C)[N]1C=C(C)C2=C1C=C(C=C2C(=O)NC\C3=C(C)\C=C(\C)NC3=O)C4=CC=C(N=C4)N5CCNCC5 [GSK-126] | -125 |
| CN1C(=O)[C@@H](NC(=O)c2cc(Cc3ccccc3)on2)COc2ccccc21 [GSK-481] | -10.3 |
| CC(C)(C)[S+](=O)([O-])c1ccc2nccc(Nc3n[nH]c4ccc(F)cc34)c2c1 [GSK-583] | -39.1 |
| COc1c(C)cc(NC(=O)c2nn(Cc3ccc(F)cc3)c3c2CN(C(=O)c2ccc[nH]2)C[C@]3(C)C(N)=O)cc1C [GSK-864] | -35.1 |
| CC(C)[S+](=O)([O-])c1ccc2nccc(Nc3ccc4scnc4c3)c2c1 [GSK-872] | -37.8 |
| CC(C)(C)C(=O)N1\N=C/C[C@H]1C2=CC=CC=C2 [GSK-963] | -9.61 |
| CCCOc1ccn2c(C(C)=O)cc(-c3ccccc3[S+](C)(=O)[O-])c2c1 [GSK-2801] | -30.1 |
| O=C(O)Cc1cccc(OCCCN(Cc2cccc(C(F)(F)F)c2Cl)CC(c2ccccc2)c2ccccc2)c1 [GSK-3965] | -71.2 |
| COc1ccccc1C(=O)Nc1cc2c(cc1N1CCCCC1)n(C)c(=O)n2C [GSK-5959] | -9.01 |
| O=C(O)CCNc1cc(N2CCc3ccccc3CC2)nc(-c2cccnc2)n1 [GSK-J2] | -21.7 |
| Cc1cc(SCc2sc(-c3ccc(C(F)(F)F)c(F)c3)nc2C)ccc1OCC(=O)O [GW-0742] | -21 |
| CN(CCOc1ccc(C[C@H](Nc2ccccc2C(=O)c2ccccc2)C(=O)O)cc1)c1ccccn1 [GW-1929] | -7.57 |
| CC(C)c1onc(-c2c(Cl)cccc2Cl)c1COc1ccc(/C=C/c2cccc(C(=O)O)c2)c(Cl)c1 [GW-4064X] | -29.7 |
| O=C1Nc2ccc(I)cc2/C1=C/c1cc(Br)c(O)c(Br)c1 [GW-5074] | -38 |
| CCC(=O)NC[C@H](Cc1ccc(OCCc2nc(-c3ccccc3)oc2C)cc1)N/C(C)=C\C(=O)c1ccc(C(F)(F)F)cc1 [GW-6471] | -30.2 |
| CC(C)(Sc1ccc(CCN(CCCCC2CCCCC2)C(=O)NC2CCCCC2)cc1)C(=O)O [GW-7647] | -45.1 |
| O=C(O)CCc1ccc(NCc2cccc(Oc3ccccc3)c2)cc1 [GW-9508] | -8.05 |
| CCOC(=O)c1ccc(OC(=O)CCCCCNC(=N)N)cc1 [Gabexate mesilate] | 7.86 |
| Cc1cccc(-c2nn3c(c2-c2ccnc4ccc(C(N)=O)cc24)CCC3)n1 [Galunisertib] | 12.5 |
| N\C1=N\C2=C(N=C[N]2COC(CO)CO)C(=O)N1 [Ganciclovir] | -18.1 |

| SMILES | efficacy [%] |
| --- | --- |
| COc1cc2ncnc(Nc3ccc(F)c(Cl)c3)c2cc1OCCCN1CCOCC1 [Gefitinib] | -15.4 |
| COC1=C2C[C@H](C)C[C@H](OC)[C@H](O)[C@@H](C)/C=C(/C)[C@H](OC(N)=O)[C@@H](OC)/C=C\C=C(\C)C(=O)NC(=CC1=O)C2=O [Geldanamycin] | -57.3 |
| Cc1ccc(C)c(OCCCC(C)(C)C(=O)O)c1 [Gemfibrozil] | -13.1 |
| OC1=CC=C(C=C1)\C2=C\OC3=C(C(=CC(=C3)O)O)C2=O [Genistein] | -33.2 |
| CC[C@]12CC[C@H]3[C@@H](CCC/4=C/C(=O)CC[C@H]34)[C@@H]1\C=C/[C@@]2(O)C#C [Gestodene] | -21.8 |
| O=c1cc(O)c(Cl)c[nH]1 [Gimeracil] | -6.4 |
| C[C@@H]1C(=O)OC2[C@H](O)[C@]34[C@H]5C[C@@H](C(C)(C)C)[C@]36[C@@H](OC(=O)[C@@H]6O)O[C@@]4(C(=O)O5)[C@]21O (some centres undefined) [Ginkgolide B] | -9.74 |
| CN1CC[C@@H](NC(=O)Nc2ccc(C#N)cc2)C[C@@H]1c1nc2ccccc2[nH]1 [Glasdegib] | -8.71 |
| CCC1=C(C)CN(C(=O)NCCc2ccc(S(=O)(=O)NC(=O)N[C@H]3CC[C@H](C)CC3)cc2)C1=O [Glimepiride] | -14.8 |
| CN1[C@@H]2CCC[C@H]1CC(NC(=O)c1nn(C)c3ccccc13)C2 (some centres undefined) [Granisetron (AB-1001)] | -17.2 |
| C=CC(=O)Nc1cc(N2CCN(CC)CC2)ccc1Nc1cc(N(C)C(=O)Nc2c(Cl)c(OC)cc(OC)c2Cl)ncn1 [H3B-6527] | -19.6 |
| CCOC(=O)C(C#N)C\1C2=CC(=CC=C2O\C(=C1C(=O)OCC)N)Br (centres undefined) [HA-14-1] | -8.15 |
| Oc1cc2c(cc1O)C1c3ccc(O)c(O)c3OCC1(O)C2 (centres undefined) [Hematoxylin] | -9.9 |
| CCC(c1ccc(O)cc1)C(CC)c1ccc(O)cc1 (centres undefined) [Hexestrol] | -61.8 |
| CNc1nc(Nc2ccc(C(=O)N3CCOCC3)cc2OC)ncc1Cl [Hg-10-102-01] | -12.2 |
| N[S+](=O)([O-])c1cc2c(cc1Cl)NCN[S+]2(=O)[O-] [Hydrochlorothiazide] | 7.16 |
| C[C@]\12CCC(=O)\C=C1CC[C@H]3[C@@H]4CC[C@](O)(C(=O)CO)[C@@]4(C)C[C@H](O)[C@H]23 [Hydrocortisone] | -23 |
| C/C1=C2/[N]3[Co+]456([OH])<-[N]7=C1[C@@H](CCC(N)=O)C(C)(C)/C7=C/C1=[N]->4C(=C(/C)C4=[N]->5[C@@](C)([C@H]3[C@H](CC(N)=O)[C@@]2(C)CCC(=O)NC[C@@H](C)OP(=O)([O-])O[C@H]2[C@@H](O)[C@@H](n3c[n]->6c5cc(C)c(C)cc53)O[C@@H]2CO)[C@@](C)(CC(N)=O)[C@@H]4CCC(N)=O)/[C@@](C)(CC(N)=O)[C@@H]1CCC(N)=O [Hydroxocobalamin] | -39.6 |
| CC(C)(O)C(=O)Nc1ccc([N+](=O)[O-])c(C(F)(F)F)c1 [Hydroxyflutamide] | -27.7 |
| C[C@H](CCC(=O)O)[C@H]1CCC2C3C[C@H](O)[C@@H]4C[C@H](O)CC[C@]4(C)C3CC[C@@]21C (some centres undefined) [Hyodeoxycholic acid] | 5.2 |
| CCN(c1ccccc1)c1cc(NC)[n+](C)c(C)n1 [ICI-D7288] | -13 |
| CC(C(C)N1CC(=O)NC(=O)C1)N1CC(=O)NC(=O)C1 (centres undefined) [ICRF-193] | -32.2 |
| COc1ccc(-n2c(C)c([N+](=O)[O-])c3ccc(O)cc32)cc1 [ID-8] | -14.4 |
| O=C(O)CCCCCC(=O)NN=C1CCCC1 [IDE-2] | -8.18 |
